Structures can show the parent of a compound that is named as a salt.
Assays:
Type in all cases: in vivo
[1] = tested on: corn (DKC 58-89, DKC 52-61, DKC 65-81); assay: V5 corn yield, choline chloride, calcium chloride and PLURONIC F-68; settings: for Avg. Yield (Bu/Ac) Trial 1 / Avg. Yield (Bu/Ac) Trial 2: foliar at V5 corn; for Avg. Yield (Bu/Ac) Trial 1: three hybrids (* two hybrids only), trial 1, one location; for Avg. Yield (Bu/Ac) Trial 2: three hybrids; for Avg. Δ in Yield (Bu/Ac): vs base seed treatment control, average of trials 1 and 2; for yield increase compared to base seed treatment control plants: foliar at V5
Experimental: In a separate experiment, large acre field trials were conducted using one and two location trials in the US Midwest (IL) planted with three different corn hybrids (DEKALB: DKC 58-89; DKC 52-61; DKC 65-81). Seed from each of the corn hybrids was coated with a seed treatment of EVERGOL® fungicide combined with PONCHO®/VOTIVO® 500. Foliar treatments comprising a non-ionic polyoxyethylene-polyoxypropylene block copolymer surfactant (PLURONIC F-68, an anti-respirant), a quaternary ammonium salt (choline chloride) and/or a di-hydrated salt (calcium chloride) were applied to corn plants at the V5 stage of development. The foliar treatments were applied using the final concentrations and application use rates as described in Table 42. Choline chloride was selected for its osmolyte-like properties. Choline chloride is a precursor of acetylcholine and is involved in the regulation of water resorption in plants. Choline chloride was tested as a foliar application treatment individually and in combination an anti-respirant (PLURONIC F 68 surfactant). Average yield in Bu/Ac was reported for two trials. Trial 1 was conducted at one location and trial 2 was conducted at two locations in the US Midwest (IL). Yield (Bu/Ac) is reported as the average yield across location(s) and as the average for all three hybrids except where indicated in Table 42 and as the average change in yield (Bu/Ac) compared to the yield from the seed treatment control plants. The Base Seed Treatment control plants received only the EVERGOL® fungicide+PONCHO®/VOTIVO® 500 seed treatment and not any foliar treatments.

[2] = tested on: corn (Beck's hybrid 5828 YH); assay: Corn growth rate under droughted conditions, alternative osmoprotectants; settings: two weeks un-watered; Anti-Respirant Control A 29.0%
Excerpt: Stachydrine was selected as an osmoprotectant that acts as a negative control due to its functional role in the induction of nodulation (Phillips, D. A., Joseph, C. M., Maxwell, C. A., “Trigonelle and stachydrine released from alfalfa seeds activate NodD2 protein in Rhizobium meliloti” (1992) Plant Physiology 99: 1526-1531). Stachydrine acts through a different mode of action as compared to the betaine-HCl osmoprotectant. Plant growth rates under droughted conditions were compared in corn treated with foliar applications comprising betaine-HCl, strachydrine or myo-inositol (see Table 37). Corn (Beck's hybrid 5828 YH) plants were planted in an environmentally controlled growth facility and grown using the conditions described in the first paragraph of this example. At 1.5 weeks, the plants were provided with another 50 mL of water per pot and plant height was measured for each plant. Plants were then segregated to prevent any cross contamination between the foliar treatments. […] Relative percent growth rate under droughted conditions was calculated for each plant in each treatment replicate using the percent (%) growth rate equation (as provided above in this Example). […]

soybean (Asgrow AG4034) = assay: R2 soybean yield, trehalose, potassium acetate and SILWET L-77; settings: for Avg. Yield (Bu/Ac): foliar at R2 soybean AG4034, three locations; for Avg. Δ in Yield (Bu/Ac): vs base seed treatment control
Excerpt: In another experiment, large acre yield replicated trials of soybean (variety: Asgrow AG4034) were planted from seed treated with a base seed treatment package containing […]® fungicide and PONCHO®/VOTIVO® 500 in three locations in the US Midwest (IL). […] Trehalose is a non-reducing carbohydrate resistant to acid hydrolysis and stable in solution under high temperatures and acidic conditions. Trehalose was applied separately and in combination with a non-blended organosilicone surfactant ([…]-77) as a foliar spray application to soybean plants. Final concentrations at application were as follows: […]

[3] = tested on: corn (Beck's hybrid 5828 YH); assay: Soil drench of corn seedlings under drought, growth during V2-V3 transition; settings: for % Δ in Plant Height Compared to Control: 11 DAP to 14 DAP, vs water-only control; for change in plant height during V2 to V3 transition compared to water-only control: soil drench at planting and day 3, 11 to 14 days after planting; for Plant Growth during the transition of V2-V3 stage (11 DAP to 14 DAP): soil drench, each component 438.5 mL/hectare, droughted conditions
Excerpt: The anti-respirant also functioned as an infiltration surfactant (above-soil surfactant or penetrant) and the anti-desiccant functioned as a humectant. […] A combined treatment with betaine-HCl (osmoprotectant), an infiltration surfactant (anti-respirant) and a humectant (anti-desiccant) was also compared with other drench treatments and a water-only control. Glycerol, a polyol compound that has three hydroxyl groups that are responsible for its solubility in water and its hydroscopic nature, was selected as a viscous humectant to combine with the betaine-HCl osmoprotectant and the infiltration surfactant. This triple treatment combination was selected based on its mode of action properties in soil drench applications that promote the retention and management of moisture by attracting moisture and condensing it for contact to the germinating seed and/or growing plant. The treatment combination was provided as a soil drench at the time of planting and again at emergence to promote rapid growth at the early V stages of development, enhance early vigor, provide for a robust stand establishment, and protect against the effects of drought during early seedling establishment. The betaine-HCl osmoprotectant was provided at a final application concentration of 83.49 mM. The infiltration surfactant was diluted in water at the recommended application use rate using a ratio of 1:1600 (surfactant to water) (52.9 μM). The humectant was provided at a final application treatment of 1% diluted in water (136.8 mM). The individual and combined treatments were provided using the application use rates (Fl. oz/Ac) as specified in Tables 54 and 55. […] In Table 55, the application use rates for all three components were the same. […] Seeds were planted at a depth of 2.54 cm, with two seeds per pot. After planting, seeds were supplied with 50 mL of the each of the treatments (as described in Tables 54 and 55) at room temperature and added to the soil in each pot as a soil drench provided at an equivalent application use rate as specified. […] After application of the second drench, the plants were left un-watered to induce and simulate droughted conditions that may occur during early seedling establishment. […] At 11 days after planting, plant height was determined for each plant in the various treatments. Corn plants provided with treatments as described in Table 55 received an additional 50 mL of water at 11 days after planting.

Q: For `O.O.[Ca+2].[Cl-].[Cl-]` [Calcium Chloride (dihydrate)], which “Avg. Yield (Bu/Ac) Trial 1” value [1] is on record?
A: Its value is 201.4 Bu/Ac.

Q: What about the “Avg. Yield (Bu/Ac) Trial 2” value [1] of the same compound?
A: Its value is 169.6 Bu/Ac.

Q: What about the “Avg. Δ in Yield (Bu/Ac)” value [1] of the same compound?
A: The value was “+11.8 Bu/Ac”.

Q: Which “Relative Growth Rate (%) under Droughted Conditions” value [2] does the source give for `O[C@H]1[C@H](O)[C@@H](O)[C@H](O)[C@@H](O)[C@H]1O` [Myo-inositol, myo-inositol] here?
A: Its value is 31.1%.

Q: Which results are given for `CC(=O)[O-].[K+]` [Potassium Acetate]?
A: Avg. Yield (Bu/Ac) (soybean (Asgrow AG4034)): 67.2 Bu/Ac; Avg. Δ in Yield (Bu/Ac) (soybean (Asgrow AG4034); three locations): +0.35 Bu/Ac

Q: Which “yield increase compared to base seed treatment control plants” value [1] does the source give for `[Ca+2].[Cl-].[Cl-]` [calcium chloride] here?
A: Its value is “+11.8 Bu/Ac”.

Q: How did the “yield increase compared to base seed treatment control plants” value [1] turn out when `C[N+](C)(C)CCO.[Cl-]` [choline chloride] was run?
A: Its value is “+8.5 Bu/Ac”.

Q: And the “Avg. Yield (Bu/Ac) Trial 1” value [1]?
A: Its value is 207.3* Bu/Ac.

Q: And the “Avg. Yield (Bu/Ac) Trial 2” value [1]?
A: Its value is 157.2 Bu/Ac.

Q: What about the “Avg. Δ in Yield (Bu/Ac)” value [1] of the same compound?
A: The value was “+8.5 Bu/Ac”.

Q: For `OCC(O)CO` [humectant-only control, glycerol], which “% Δ in Plant Height Compared to Control” value [3] is on record?
A: Its value is “+3%”.

Q: And the “change in plant height during V2 to V3 transition compared to water-only control” value [3]?
A: The value was “+3%”.

Q: And the “Plant Growth during the transition of V2-V3 stage (11 DAP to 14 DAP)” value [3]?
A: The value was 2.98 cm.

Q: How did the “% Δ in Plant Height Compared to Control” value [3] turn out when `C[N+](C)(C)CC(=O)O` [osmoprotectant-only control, betaine-HCl] was run?
A: The value was “+8%”.

Q: What about the “change in plant height during V2 to V3 transition compared to water-only control” value [3] of the same compound?
A: The value was “+8%”.

Q: What about the “Plant Growth during the transition of V2-V3 stage (11 DAP to 14 DAP)” value [3] of the same compound?
A: The value was 3.11 cm.

Q: Which results are given for `OC[C@H]1O[C@H](O[C@H]2O[C@H](CO)[C@@H](O)[C@H](O)[C@H]2O)[C@H](O)[C@@H](O)[C@@H]1O` [trehalose]?
A: average change in soybean yield compared to seed treatment-only control (soybean (Asgrow AG4034); R2, trehalose 6.4 Fl. oz/Ac, SILWET L-77 3.2 Fl. oz/Ac, three locations): +1.49 Bu/Ac; Avg. Yield (Bu/Ac) (soybean (Asgrow AG4034)): 68.3 Bu/Ac; Avg. Δ in Yield (Bu/Ac) (soybean (Asgrow AG4034); three locations): +1.49 Bu/Ac
